# Patent US20080293696A1, “2-Aminoarylcarboxamides Useful as Cancer Chemotherapeutic Agents” (Bayer Pharmaceuticals Corporation, priority 2004, published 2008)
# System: PAKT/PKB (p-(S473) AKT) in H209 small cell lung carcinoma cells stimulated with Stem Cell Factor
# Assay: PAKT/PKB Cytoblot Assay with H209 cells (SCF-stimulated p-(S473) AKT)
# Assay type: cell-based
# Conditions: Homo sapiens, NCI-H209, compound 1 hour, SCF 25 ng/mL 5 minutes, group: between 500 nM and 1 μM (units in value)
# How it was run: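 H209 SCLC cells kept overnight in RPMI with 0.1% BSA were pretreated 1 h at 37 °C with compound (0.01–10 μM final), then stimulated with SCF 25 ng/mL for 5 min. After formaldehyde/methanol fixation, p-(S473) AKT was detected in-cell with HRP secondary and ECL chemiluminescence, and IC50 was derived.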
row,Structure (SMILES),IC50
1,"COc1cccc(C(=O)Nc2ccc3c(c2)C(F)(F)OC(F)(F)O3)c1NCc1ccncc1 [Example 8, 3-methoxy-2-[(pyridin-4-ylmethyl)amino]-N-(2,2,4,4-tetrafluoro-4H-1,3-benzodioxin-6-yl)benzamide]",500 to 1000 nM
2,"N#Cc1cc(CNc2cc(F)ccc2C(=O)Nc2ccc3c(c2)OC(F)(F)C(F)(F)O3)ccn1 [Example 28, 2-{[(2-cyanopyridin-4-yl)methyl]amino}-4-fluoro-N-(2,2,3,3-tetrafluoro-2,3-dihydro-1,4-benzodioxin-6-yl)benzamide]",500 to 1000 nM
3,"CN(C)c1nccc(CNc2ccccc2C(=O)Nc2ccc3c(c2)OC(F)(F)C(F)(F)O3)n1 [Example 50, 2-({[2-(dimethylamino)pyrimidin-4-yl]methyl}amino)-N-(2,2,3,3-tetrafluoro-2,3-dihydro-1,4-benzodioxin-6-yl)benzamide]",500 to 1000 nM
4,"CN(C)CCCCNC(=O)c1cc(CNc2ccccc2C(=O)Nc2ccc3c(c2)OC(F)(F)O3)ccn1 [Example 90, 4-{[(2-{[(2,2-difluoro-1,3-benzodioxol-5-yl)amino]carbonyl}phenyl)amino]methyl}-N-[4-(dimethylamino)butyl]pyridine-2-carboxamide]",500 to 1000 nM
5,"O=C(NCc1ccccc1)Nc1cc(CNc2ccccc2C(=O)Nc2ccc3c(c2)OC(F)(F)O3)ccn1 [Example 172, 2-{[(2-{[(benzylamino)carbonyl]amino}pyridin-4-yl)methyl]amino]-N-(2,2-difluoro-1,3-benzodioxol-5-yl)benzamide]",500 to 1000 nM
6,"O=C(Nc1ccc2c(c1)OC(F)(F)O2)c1ccccc1NCc1ccnc(NCCc2ccccc2)c1 [Example 150, N-(2,2-difluoro-1,3-benzodioxol-5-yl)-2-[({2-[(2-phenylethyl)amino]pyridin-4-yl}methyl)amino]benzamidetrifluoroacetate]",500 to 1000 nM
7,"COCCOCC(=O)Nc1cc(CNc2ccccc2C(=O)Nc2ccc3c(c2)OC(F)(F)O3)ccn1 [Example 154, N-(2,2-difluoro-1,3-benzodioxol-5-yl)-2-{[(2{[(2-methoxyethoxy)acetyl]amino}pyridin-4-yl)methyl]amino}benzamide]",500 to 1000 nM

# Second part, the molecule after the results:
row,IC50,Structure (SMILES)
1,500 to 1000 nM,"CN(C)C(=O)c1cc(CNc2ccccc2C(=O)Nc2ccc3c(c2)OC(F)(F)O3)ccn1 [Example 80, 4-{[(2-{[(2,2-Difluoro-1,3-benzodioxol-5-yl)amino]carbonyl}phenyl)amino]methyl}-N,N-dimethylpyridine-2-carboxamide]"
2,500 to 1000 nM,"O=C(Nc1ccc2c(c1)C(F)(F)OC(F)(F)O2)c1ccccc1NCc1ccnc(C2=NCCN2)c1 [Example 40, 2-({[2-(4,5-dihydro-1H-imidazol-2-yl)pyridin-4-yl]methyl}amino)-N-(2,2,4,4-tetrafluoro-4H-1,3-benzodioxin-6-yl)benzamide]"

# Same assay, conditions: Homo sapiens, NCI-H209, compound 1 hour, SCF 25 ng/mL 5 minutes, group: between 1 and 3 μM
row,Structure (SMILES),IC50
1,"O=C(O)CCNC(=O)c1cc(CNc2ccccc2C(=O)Nc2ccc3c(c2)OC(F)(F)O3)ccn1 [Example 99, N-[(4-{[(2-{[(2,2-difluoro-1,3-benzodioxol-5-yl)amino]carbonyl}phenyl)amino]methyl}pyridin-2-yl)carbonyl]beta-alanine]",1000 to 3000 nM
2,"COc1ccc(NCc2ccncc2)c(C(=O)Nc2ccc3c(c2)OC(F)(F)C(F)(F)O3)c1 [Example 1, 5-methoxy-2-[(pyridin-4-ylmethyl)amino]-N-(2,2,3,3-tetrafluoro-2,3-dihydro-1,4-benzodioxin-6-yl)benzamide]",1000 to 3000 nM
3,"CC(CN(C)C)NC(=O)c1cc(CNc2ccccc2C(=O)Nc2ccc3c(c2)OC(F)(F)O3)ccn1 (stereo not shown) [Example 116, 4-{[(2-{[(2,2-difluoro-1,3-benzodioxol-5-yl)amino]carbonyl}phenyl)amino]methyl}-N-[2-(dimethylamino)-1-methylethyl]pyridine-2-carboxamide]",1000 to 3000 nM

# Same assay, conditions: Homo sapiens, NCI-H209, compound 1 hour, SCF 25 ng/mL 5 minutes, group: less than 500 nM
row,Structure (SMILES),IC50
1,"Nc1cc(CNc2ccccc2C(=O)Nc2ccc3c(c2)OC(F)(F)O3)ccn1 [Example 153, 2-{[(2-aminopyridin-4-yl)methyl]amino}-N-(2,2-difluoro-1,3-benzodioxol-5-yl)benzamide]",< 500 nM
2,"O=C(NCCCCN1CCCC1)c1cc(CNc2ccccc2C(=O)Nc2ccc3c(c2)OC(F)(F)O3)ccn1 [Example 97, 4-{[(2-{[(2,2-difluoro-1,3-benzodioxol-5-yl)amino]carbonyl}phenyl)amino]methyl}-N-(4-pyrrolidin-1-ylbutyl)pyridine-2-carboxamide]",< 500 nM
3,"COC(C)(C)C(=O)Nc1cc(CNc2ccccc2C(=O)Nc2ccc3c(c2)OC(F)(F)O3)ccn1 [Example 159, N-(2,2-difluoro-1,3-benzodioxol-5-yl)-2-[({2-[(2-methoxy-2-methylpropanoyl)amino]pyridin-4-yl}methyl)amino]benzamide]",< 500 nM
4,"N#Cc1cc(CNc2cc(F)ccc2C(=O)Nc2ccc3c(c2)OC(F)(F)O3)ccn1 [Example 29, 2-{[(2-cyanopyridin-4-yl)methyl]amino}-N-(2,2-difluoro-1,3-benzodioxol-5-yl)-4-fluorobenzamide]",< 500 nM
5,"N#Cc1cc(CNc2ccccc2C(=O)Nc2ccc3c(c2)OC(F)(F)O3)ccn1 [Example 25, 2-{[(2-cyanopyridin-4-yl)methyl]amino}-N-(2,2-difluoro-1,3-benzodioxol-5-yl)benzamide]",< 500 nM
6,"O=C(NCCOCCO)c1cc(CNc2ccccc2C(=O)Nc2ccc3c(c2)OC(F)(F)O3)ccn1 [Example 103, 4-{[(2-{[(2,2-difluoro-1,3-benzodioxol-5-yl)amino]carbonyl}phenyl)amino]methyl}-N-[2-(2-hydroxyethoxy)ethyl]pyridine-2carboxamide]",< 500 nM
7,"O=C(NCc1ccc(N2CCOCC2)cc1)c1cc(CNc2ccccc2C(=O)Nc2ccc3c(c2)OC(F)(F)O3)ccn1 [Example 133, 4-{[(2-{[(2,2-difluoro-1,3-benzodioxol-5-yl)amino]carbonyl}phenyl)amino]methyl}-N-(4-morpholin-4-ylbenzyl)pyridine-2-carboxamide]",< 500 nM
8,"CCCOCCNC(=O)c1cc(CNc2ccccc2C(=O)Nc2ccc3c(c2)OC(F)(F)O3)ccn1 [Example 114, 4-{[(2-{[(2,2-difluoro-1,3-benzodioxol-5-yl)amino]carbonyl}phenyl)amino]methyl}-N-(2-propoxyethyl)pyridine-2-carboxamide]",< 500 nM
9,"CNc1nccc(CNc2ccccc2C(=O)Nc2ccc3c(c2)OC(F)(F)O3)n1 [Example 49, N-(2,2-difluoro-1,3-benzodioxol-5-yl)-2-({[2-(methylamino)pyrimidin-4-yl]methyl}amino)benzamide]",< 500 nM
10,"CC(=O)OCC(=O)Nc1cc(CNc2ccccc2C(=O)Nc2ccc3c(c2)OC(F)(F)O3)ccn1 [Example 156, 2-[(4-{[(2-{[(2,2-difluoro-1,3-benzodioxol-5-yl)amino]carbonyl}phenyl)amino]methyl}pyridin-2-yl)aminol-2-oxoethyl acetate]",< 500 nM
11,"CN(C)CCCNC(=O)c1cc(CNc2ccccc2C(=O)Nc2ccc3c(c2)OC(F)(F)O3)ccn1 [Example 86, 4-{[(2-{[(2,2-difluoro-1,3-benzodioxol-5-yl)amino]carbonyl}phenyl)amino]methyl}-N-[3-(dimethylamino)propyl]pyridine2-carboxamide]",< 500 nM
12,"COc1ccc(OCC(O)CNC(=O)c2cc(CNc3ccccc3C(=O)Nc3ccc4c(c3)OC(F)(F)O4)ccn2)cc1 (stereo not shown) [Example 132, 4-{[(2-{[(2,2-difluoro-1,3-benzodioxol-5-yl)amino]carbonyl}phenyl)amino]methyl}-N-[2-hydroxy-3-(4-methoxyphenoxy)propyl]pyridine-2-carboxamide]",< 500 nM

# Other lines, results leading:
row,IC50,Structure (SMILES)
1,< 500 nM,"CC(=O)Nc1cc(CNc2ccccc2C(=O)Nc2ccc3c(c2)OC(F)(F)O3)ccn1 [Example 152, 2-({[2-(acetylamino)pyridin-4-yl]methyl}amino)-N-(2,2-difluoro-1,3-benzodioxol-5-yl)benzamide]"
2,< 500 nM,"CNC(=O)c1cc(CNc2ccccc2C(=O)Nc2ccc3c(c2)OC(F)(F)C(F)(F)O3)ccn1 [Example 3, N-methyl-4-{[(2-{[(2,2,3,3-tetrafluoro-2,3-dihydro-1,4-benzodioxin-6-yl)amino]carbonyl}phenyl)amino]methyl}pyridine-2-carboxamide]"
3,< 500 nM,"CNC(=O)Nc1cc(CNc2ccccc2C(=O)Nc2ccc3c(c2)OC(F)(F)O3)ccn1 [Example 165, N-(2,2-difluoro-1,3-benzodioxol-5-yl)-2-{[(2-{[(methylamino)carbonyl]amino}pyridin-4-yl)methyl]amino}benzamide]"
4,< 500 nM,"CNC(=O)c1cc(CNc2ccccc2C(=O)Nc2ccc3c(c2)C(F)(F)OC(F)(F)O3)ccn1 [Example 4, N-methyl-4-{[(2-{[(2,2,4,4-tetrafluoro-4H-1,3-benzodioxin-6-yl)amino]carbonyl}phenyl)amino]methyl}pyridine-2-carboxamide]"
5,< 500 nM,"CCOC(=O)c1cc(CNc2ccccc2C(=O)Nc2ccc3c(c2)OC(F)(F)O3)ccn1 [Example 82, Ethyl 4-{[(2-{[(2,2-difluoro-1,3-benzodioxol-5-yl)amino]carbonyl}phenyl)amino]methyl}pyridine-2-carboxylate]"
6,< 500 nM,"O=C(Nc1ccc2c(c1)C(F)(F)OC(F)(F)O2)c1ccccc1NCc1ccncc1 [Example 2, 2-[(pyridin-4-ylmethyl)amino]-N-(2,2,4,4-tetrafluoro-4H-1,3-benzodioxin-6-yl)benzamide]"
7,< 500 nM,"N#Cc1cc(CNc2ccccc2C(=O)Nc2ccc3c(c2)C(F)(F)OC(F)(F)O3)ccn1 [Example 23, 2-{[(2-cyanopyridin-4-yl)methyl]amino}-N-(2,2,4,4-tetrafluoro-4H-1,3-benzodioxin-6-yl)benzamide]"
